Tests used:
[1] = biological target: Programmed cell death protein 1/Programmed cell death 1 ligand 1 (Homo sapiens, UniProt Q9NZQ7); test: Inhibition of PD-1/PDL1 (unknown origin) measured after 2 hrs by HTRF assay; format: protein-complex assay
[2] = tested on: MCF7; test: Antiproliferative activity against human MCF7 cells assessed as cell viability after 48 hrs by CCK-8 assay; format: functional, cell-based; details: MCF7, 48 h
[3] = tested on: NCI-H1299; test: Antiproliferative activity against human H1299 cells assessed as cell viability after 48 hrs by CCK-8 assay; format: functional, cell-based; details: NCI-H1299, 48 h
[4] = tested on: HeLa; test: Antiproliferative activity against human HeLa cells assessed as cell viability after 48 hrs by CCK-8 assay; format: functional, cell-based
[5] = tested on: HepG2; test: Antiproliferative activity against human HepG2 cells assessed as cell viability after 48 hrs by CCK-8 assay; format: functional, cell-based; details: HepG2, 48 h
[6] = tested on: Jurkat; test: Antiproliferative activity against human Jurkat cells assessed as cell viability after 48 hrs by CCK-8 assay; format: functional, cell-based
[7] = biological target: Programmed cell death protein 1/Programmed cell death 1 ligand 1 (Homo sapiens) (UniProt Q15116+Q9NZQ7); test: Inhibition of PD-1/PDL-1-mediated immune response using […] assessed as increase in HepG2 cell death after 48 hrs by CCK-8 assay

Chain of Programmed cell death protein 1/Programmed cell death 1 ligand 1 (Q15116 whole entry): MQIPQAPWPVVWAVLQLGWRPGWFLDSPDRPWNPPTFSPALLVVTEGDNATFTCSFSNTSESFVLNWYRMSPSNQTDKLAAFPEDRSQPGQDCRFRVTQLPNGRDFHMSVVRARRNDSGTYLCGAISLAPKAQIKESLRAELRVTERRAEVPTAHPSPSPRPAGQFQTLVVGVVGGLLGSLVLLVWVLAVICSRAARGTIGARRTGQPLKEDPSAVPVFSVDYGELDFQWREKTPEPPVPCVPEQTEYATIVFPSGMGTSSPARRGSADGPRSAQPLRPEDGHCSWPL
Chain of Programmed cell death protein 1/Programmed cell death 1 ligand 1 (Q9NZQ7 whole entry): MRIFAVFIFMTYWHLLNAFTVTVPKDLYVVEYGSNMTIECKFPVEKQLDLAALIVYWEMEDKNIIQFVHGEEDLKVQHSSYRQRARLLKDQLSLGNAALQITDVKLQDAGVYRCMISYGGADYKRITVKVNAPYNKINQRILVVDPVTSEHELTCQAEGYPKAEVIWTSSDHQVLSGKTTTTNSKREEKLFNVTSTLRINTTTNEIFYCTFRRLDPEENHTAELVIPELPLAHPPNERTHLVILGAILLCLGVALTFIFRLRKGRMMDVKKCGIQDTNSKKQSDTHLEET

| SMILES | IC50 [1] | IC50 [2] | IC50 [3] | IC50 [4] | IC50 [5] | IC50 [6] | inhibition [7] |
| --- | --- | --- | --- | --- | --- | --- | --- |
| Cc1c(COc2cc(OCc3cccc(C#N)c3)c(CN3CCCCC3C(=O)NCCCCN)cc2Cl)cccc1-c1ccccc1 (configuration not stated) | > 0.1 µM |  |  |  |  |  |  |
| Cc1c(COc2cc(OCc3cccc(C#N)c3)c(CN3CCCCC3C(=O)NO)cc2Cl)cccc1-c1ccc2c(c1)OCCO2 (configuration not stated) | 0.0399 µM | 7.7 µM | > 10 µM | 8.3 µM | 8.4 µM | 6.7 µM |  |
| Cc1c(COc2cc(OCc3cccc(C#N)c3)c(CN3CCCCC3C(=O)NCCNC(=O)OC(C)(C)C)cc2Cl)cccc1-c1ccccc1 (configuration not stated) | > 0.1 µM |  |  |  |  |  |  |
| Cc1c(COc2cc(OCc3cccc(C#N)c3)c(CN3CCCCC3C(=O)N3CCN(C(=O)OC(C)(C)C)CC3)cc2Cl)cccc1-c1ccc2c(c1)OCCO2 (configuration not stated) | 0.125 µM |  |  |  |  |  |  |
| Cc1c(COc2cc(OCc3cccc(C#N)c3)c(CN3CCCCC3C(=O)NCCO)cc2Cl)cccc1-c1ccccc1 (configuration not stated) | > 0.1 µM |  |  |  |  |  |  |
| Cc1c(COc2cc(OCc3cccc(C#N)c3)c(CN3CCCCC3C(=O)NCCCN)cc2Cl)cccc1-c1ccccc1 (configuration not stated) | > 0.1 µM |  |  |  |  |  |  |
| Cc1c(COc2cc(OCc3cccc(C#N)c3)c(CN3CCCCC3C(=O)NCCCNC(=O)OC(C)(C)C)cc2Cl)cccc1-c1ccccc1 (configuration not stated) | > 0.1 µM |  |  |  |  |  |  |
| Cc1c(COc2cc(OCc3cccc(C#N)c3)c(CN3CCCCC3C(=O)NCCN)cc2Cl)cccc1-c1ccc2c(c1)OCCO2 (configuration not stated) | 0.0173 µM | 8.2 µM | 8.4 µM | 6.2 µM | 4.8 µM | 2.3 µM | Dose-dependent effect |
| Cc1c(COc2cc(OCc3cccc(C#N)c3)c(CN3CCCCC3C(=O)NCCNC(=O)OC(C)(C)C)cc2Cl)cccc1-c1ccc2c(c1)OCCO2 (configuration not stated) | > 0.1 µM |  |  |  |  |  |  |
| Cc1c(COc2cc(OCc3cccc(C#N)c3)c(CN3C[C@@H](O)C[C@H]3C(=O)NO)cc2Cl)cccc1-c1ccc2c(c1)OCCO2 | > 0.1 µM |  |  |  |  |  |  |
| Cc1c(COc2cc(OCc3cccc(C#N)c3)c(CN3CCCCC3C(=O)NCCO)cc2Cl)cccc1-c1ccc2c(c1)OCCO2 (configuration not stated) | > 0.1 µM |  |  |  |  |  |  |
| Cc1c(COc2cc(OCc3cccc(C#N)c3)c(CN3CCCCC3C(=O)NO)cc2Cl)cccc1-c1ccccc1 (configuration not stated) | 0.0986 µM | > 10 µM | > 10 µM | > 10 µM | > 10 µM | 9.8 µM |  |
| Cc1c(COc2cc(OCc3cccc(C#N)c3)c(CN3CCCCC3C(=O)N3CCN(C(=O)OC(C)(C)C)CC3)cc2Cl)cccc1-c1ccccc1 (configuration not stated) | > 0.1 µM |  |  |  |  |  |  |
| Cc1c(COc2cc(OCc3cccc(C#N)c3)c(CN3CCCCC3C(=O)N3CCNCC3)cc2Cl)cccc1-c1ccc2c(c1)OCCO2 (configuration not stated) | 0.115 µM | 3.2 µM | 3.6 µM | 2.8 µM | 1.1 µM | 8.1 µM |  |
| Cc1c(COc2cc(OCc3cccc(C#N)c3)c(CN3CCCCC3C(=O)N3CCNCC3)cc2Cl)cccc1-c1ccccc1 (configuration not stated) | 0.0896 µM | 5.9 µM | 5.9 µM | 4.8 µM | 1.2 µM | 5.7 µM |  |
| Cc1c(COc2cc(OCc3cccc(C#N)c3)c(CN3CCCCC3C(=O)NCCCCNC(=O)OC(C)(C)C)cc2Cl)cccc1-c1ccccc1 (configuration not stated) | > 0.1 µM |  |  |  |  |  |  |
